Test results taken from US11013725B2, “Therapeutic agents for inner ear hearing impairment” (Keio University, priority 2015, dated 2021).

Columns and labels:
neurons = conditions: stated as known; cited from earlier work
[1] = test system: inner ear cells derived from iPS cells of patients with Pendred syndrome; test: Apoptosis under epoxomicin cellular stress (Cleaved caspase 3 staining of pendrin-positive cells); type: cell-based, human
Experimental: Pendrin-positive cells were induced from iPS cells derived from patients and iPS/ES cells derived from healthy subjects using the above method. The differentiation-induced cells were subjected to the following treatment. In the rapamycin administration group, rapamycin was administered for 3 days. In the cellular stress/rapamycin group, rapamycin (0.2 nM) was administered for 2 days and then epoxomicin (0.5 μM) was administered as cellular stress for 24 hours along with rapamycin. In the cellular stress group, DMSO was administered for 2 days and then only epoxomicin (0.5 μM) was administered as cellular stress for 24 hours. For fluorescent antibody staining, goat anti-pendrin antibody and rabbit anti-Cleaved Caspase 3 antibody were added (1:100 and 1:300, respectively) to the fixed cells on glass slides after antigen retrieval. Cell nuclei were then stained with Hoechst 33258 (diluted 1:1000). […] Pendrin-positive cells were induced from iPS cells derived from patients and iPS/ES cells derived from healthy subjects using the above method. The differentiation-induced cells were subjected to the following. In the rapamycin administration group, rapamycin was administered for 3 days. In the cellular stress/rapamycin group, rapamycin (0.2 nM) was administered for 2 days and then epoxomicin (0.5 μM) was administered as cellular stress for 24 hours along with rapamycin. In the cellular stress group, DMSO was administered for 2 days and then only epoxomicin (0.5 μM) was administered as cellular stress for 24 hours. […] For fluorescent antibody staining, goat anti-pendrin antibody and rabbit anti-Cleaved Caspase 3 antibody were added (1:100 and 1:300, respectively) to the fixed cells on glass slides after antigen retrieval. Cell nuclei were then stained with Hoechst 33258 (diluted 1:1000). […] Pendrin-positive cells were induced from iPS cells derived from patients and iPS/ES cells derived from healthy subjects using the above method. The differentiation-induced cells were subjected to the following treatment. In the calpeptin administration group, calpeptin was administered for 3 days. […]

[2] = test system: inner ear cells derived from iPS cells of patients with Pendred syndrome; test: Measurement of cell viability under epoxomicin cellular stress (count of cells positive for pendrin but negative for Cleaved caspase 3); type: cell-based, human
Experimental: Pendrin-positive cells were induced from iPS cells derived from patients and iPS/ES cells derived from healthy subjects using the above method. The differentiation-induced cells were subjected to the following treatment. In the rapamycin administration group, rapamycin was administered for 3 days. In the cellular stress/rapamycin group, rapamycin (0.2 nM) was administered for 2 days and then epoxomicin (0.5 μM) was administered as cellular stress for 24 hours along with rapamycin. In the cellular stress group, DMSO was administered for 2 days and then only epoxomicin (0.5 μM) was administered as cellular stress for 24 hours. For fluorescent antibody staining, goat anti-pendrin antibody and rabbit anti-Cleaved Caspase 3 antibody were added (1:100 and 1:300, respectively) to the fixed cells on glass slides after antigen retrieval. Cell nuclei were then stained with Hoechst 33258 (diluted 1:1000). […] Pendrin-positive cells were induced from iPS cells derived from patients and iPS/ES cells derived from healthy subjects using the above method. The differentiation-induced cells were subjected to the following treatment. In the rapamycin administration group, rapamycin was administered for 3 days. In the cellular stress/rapamycin group, rapamycin (0.2 nM) was administered for 2 days and then epoxomicin (0.5 μM) was administered as cellular stress for 24 hours along with rapamycin. […]

[3] = test system: differentiation-induced inner ear sensory epithelial cells; test: Administration of gentamicin to differentiation-induced inner ear sensory epithelial cells (cytotoxicity, number of cells); type: cell-based, human; conditions: gentamicin injection diluted 80 times, administered for 10 days; FIG. 7
Experimental: (1-5) Administration of Gentamicin Known to Have Inner Ear Toxicity to Differentiation-Induced Inner Ear Sensory Epithelial Cells
A gentamicin injection diluted 80 times was administered for 10 days to the inner ear sensory epithelial cells whose differentiation had been induced using this method.

CCCC[C@@H](C=O)NC(=O)[C@H](CC(C)C)NC(=O)OCc1ccccc1 [Calpeptin]
apoptosis of neurons in neurodegenerative diseases and the like (neurons): known to inhibit apoptosis of neurons
apoptosis when cells are stressed ([1]; calpeptin 0.5 nM for 2 days, then epoxomicin 0.5 μM for 24 hours along with calpeptin, FIG. 14, reference example): cannot inhibit apoptosis

CN(C)C(=N)NC(=N)N [metformin]
decrease in the cell viability when cells are stressed ([2]; 1 mM or 10 mM metformin for 2 days, then epoxomicin 0.5 μM for 24 hours along with metformin, FIG. 12): suppresses the decrease in the cell viability
apoptosis when cells are stressed ([1]; 1 mM or 10 mM metformin for 2 days, then epoxomicin 0.5 μM for 24 hours along with metformin, FIG. 13): inhibits apoptosis

CO[C@H]1C[C@@H]2CC[C@@H](C)[C@@](O)(O2)C(=O)C(=O)N2CCCC[C@H]2C(=O)O[C@H]([C@H](C)C[C@@H]2CC[C@@H](O)[C@H](OC)C2)CC(=O)[C@H](C)/C=C(\C)[C@@H](O)[C@@H](OC)C(=O)[C@H](C)C[C@H](C)/C=C/C=C/C=C/1C [rapamycin]
decrease in cell viabilities when cells are stressed ([2]; rapamycin 0.2 nM for 2 days, then epoxomicin 0.5 μM for 24 hours along with rapamycin, FIG. 10): suppresses decrease in cell viabilities
apoptosis when cells are stressed (cells positive for pendrin and Cleaved caspase 3) ([1]; rapamycin 0.2 nM for 2 days, then epoxomicin 0.5 μM for 24 hours along with rapamycin, FIG. 11): inhibits such apoptosis

gentamicin
number of cells as compared with a control group (cytotoxicity) [3]: significantly decreased
